Reference: a compilation of properties of binary mixtures (doi:10.1007/s10953-005-5594-7)

Test: xn = mol fraction of the nth substance listed
Conditions: 298.15 K, 101.3 kPa

CCCC[n+]1ccn(C)c1.F[P-](F)(F)(F)(F)F + CC(C)=O
Conditions	viscosity [mPa·s]
x2 = 0	270
x2 = 0.1147	137
x2 = 0.198	84.8
x2 = 0.2923	46.7
x2 = 0.4035	24
x2 = 0.4993	13.41
x2 = 0.5495	9.68
x2 = 0.6519	4.99
x2 = 0.6989	3.69
x2 = 0.8956	0.81
x2 = 0.9481	0.516

CCCC[n+]1ccn(C)c1.F[P-](F)(F)(F)(F)F + CCC(=O)CC
Conditions	viscosity [mPa·s]
x2 = 0	270

CCCC[n+]1ccn(C)c1.F[P-](F)(F)(F)(F)F + CCC(C)=O
Conditions	viscosity [mPa·s]
x2 = 0	270
x2 = 0.0995	145
x2 = 0.2007	81.6
x2 = 0.5002	13.55
x2 = 0.5506	9.82
x2 = 0.5988	7.27
x2 = 0.7023	3.701
x2 = 0.8004	1.861
x2 = 0.9027	0.861
x2 = 0.9487	0.606

CC(C)=O + CCCC[n+]1ccn(C)c1.F[P-](F)(F)(F)(F)F
Conditions	viscosity [mPa·s]
x1 = 1	0.316

CCC(=O)CC + CCCC[n+]1ccn(C)c1.F[P-](F)(F)(F)(F)F
Conditions	viscosity [mPa·s]
x1 = 0.1088	137
x1 = 0.3986	24.26
x1 = 0.4491	17.94
x1 = 0.5503	10.02
x1 = 0.601	7.37
x1 = 0.6983	4.03
x1 = 0.8007	2.022
x1 = 0.9019	0.972
x1 = 0.948	0.69
x1 = 1	0.458

CCC(C)=O + CCCC[n+]1ccn(C)c1.F[P-](F)(F)(F)(F)F
Conditions	viscosity [mPa·s]
x1 = 1	0.388

CCOC(C)=O + CCCC[n+]1ccn(C)c1.F[P-](F)(F)(F)(F)F
Conditions	viscosity [mPa·s]
x1 = 1	0.439

O=C1CCCC1 + CCCC[n+]1ccn(C)c1.F[P-](F)(F)(F)(F)F
Conditions	viscosity [mPa·s]
x1 = 0.1883	114.8
x1 = 0.4475	33.04
x1 = 0.5025	24.71
x1 = 0.6034	14.52
x1 = 0.6502	11.01
x1 = 0.7011	7.89
x1 = 0.8041	4.19
x1 = 0.8982	2.274
x1 = 0.9518	1.566
x1 = 1	1.074

CCCC[n+]1ccn(C)c1.F[P-](F)(F)(F)(F)F + CCOC(C)=O
Conditions	viscosity [mPa·s]
x2 = 0	270
x2 = 0.0937	149
x2 = 0.1914	87.9
x2 = 0.2918	48.2
x2 = 0.3944	27.52
x2 = 0.4485	20.54
x2 = 0.4967	16.16
x2 = 0.5529	11.52
x2 = 0.6039	8.45
x2 = 0.7092	4.21
x2 = 0.8037	2.208
x2 = 0.898	1.083
x2 = 0.9504	0.699
